Data reported in ChEMBL document CHEMBL4706555, “Synthesis of biphenyl oxazole derivatives via Suzuki coupling and biological evaluations as nucleotide pyrophosphatase/phosphodiesterase-1 and -3 inhibitors” (Eur J Med Chem, 2020).

Tests used:
[1] = molecular target: T1, Ectonucleotide pyrophosphatase/phosphodiesterase family member 1 (Homo sapiens, UniProt P22413); assay: Inhibition of human recombinant NPP1 expressed in COS-7 cell membrane […] using p-nitrophenyl thymidine monophosphate substrate incubated for 35 mins by spectrophotometric analysis; format: cell membranes
T1 sequence (P22413 whole entry): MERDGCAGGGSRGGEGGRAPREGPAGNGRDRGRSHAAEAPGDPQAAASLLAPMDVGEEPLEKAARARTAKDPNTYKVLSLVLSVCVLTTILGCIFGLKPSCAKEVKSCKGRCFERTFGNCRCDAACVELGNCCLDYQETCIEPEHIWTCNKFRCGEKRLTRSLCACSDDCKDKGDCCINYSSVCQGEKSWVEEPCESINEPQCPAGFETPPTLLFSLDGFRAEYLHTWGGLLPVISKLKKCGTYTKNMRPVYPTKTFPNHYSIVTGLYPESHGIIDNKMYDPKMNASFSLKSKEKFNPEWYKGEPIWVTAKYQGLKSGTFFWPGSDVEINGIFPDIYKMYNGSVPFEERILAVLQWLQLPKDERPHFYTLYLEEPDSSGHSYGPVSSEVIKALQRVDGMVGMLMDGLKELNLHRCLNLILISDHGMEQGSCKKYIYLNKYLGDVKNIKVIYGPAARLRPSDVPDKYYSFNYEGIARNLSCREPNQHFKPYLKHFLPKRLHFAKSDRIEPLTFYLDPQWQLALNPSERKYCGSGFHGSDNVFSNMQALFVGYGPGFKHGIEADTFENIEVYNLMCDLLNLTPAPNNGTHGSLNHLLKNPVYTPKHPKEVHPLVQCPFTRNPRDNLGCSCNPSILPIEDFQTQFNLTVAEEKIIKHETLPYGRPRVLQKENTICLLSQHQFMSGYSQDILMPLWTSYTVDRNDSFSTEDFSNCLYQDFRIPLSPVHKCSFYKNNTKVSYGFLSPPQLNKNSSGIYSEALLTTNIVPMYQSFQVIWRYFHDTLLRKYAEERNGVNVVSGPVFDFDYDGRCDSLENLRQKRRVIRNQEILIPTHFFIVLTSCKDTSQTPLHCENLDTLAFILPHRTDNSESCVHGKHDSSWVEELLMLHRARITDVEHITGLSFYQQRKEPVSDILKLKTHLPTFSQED

[2] = molecular target: T2, Ectonucleotide pyrophosphatase/phosphodiesterase family member 3 (Homo sapiens, UniProt O14638); assay: Inhibition of human recombinant NPP3 expressed in COS-7 cell membrane […] using p-nitrophenyl thymidine monophosphate substrate incubated for 35 mins by spectrophotometric analysis; format: cell membranes
T2 sequence (O14638 whole entry): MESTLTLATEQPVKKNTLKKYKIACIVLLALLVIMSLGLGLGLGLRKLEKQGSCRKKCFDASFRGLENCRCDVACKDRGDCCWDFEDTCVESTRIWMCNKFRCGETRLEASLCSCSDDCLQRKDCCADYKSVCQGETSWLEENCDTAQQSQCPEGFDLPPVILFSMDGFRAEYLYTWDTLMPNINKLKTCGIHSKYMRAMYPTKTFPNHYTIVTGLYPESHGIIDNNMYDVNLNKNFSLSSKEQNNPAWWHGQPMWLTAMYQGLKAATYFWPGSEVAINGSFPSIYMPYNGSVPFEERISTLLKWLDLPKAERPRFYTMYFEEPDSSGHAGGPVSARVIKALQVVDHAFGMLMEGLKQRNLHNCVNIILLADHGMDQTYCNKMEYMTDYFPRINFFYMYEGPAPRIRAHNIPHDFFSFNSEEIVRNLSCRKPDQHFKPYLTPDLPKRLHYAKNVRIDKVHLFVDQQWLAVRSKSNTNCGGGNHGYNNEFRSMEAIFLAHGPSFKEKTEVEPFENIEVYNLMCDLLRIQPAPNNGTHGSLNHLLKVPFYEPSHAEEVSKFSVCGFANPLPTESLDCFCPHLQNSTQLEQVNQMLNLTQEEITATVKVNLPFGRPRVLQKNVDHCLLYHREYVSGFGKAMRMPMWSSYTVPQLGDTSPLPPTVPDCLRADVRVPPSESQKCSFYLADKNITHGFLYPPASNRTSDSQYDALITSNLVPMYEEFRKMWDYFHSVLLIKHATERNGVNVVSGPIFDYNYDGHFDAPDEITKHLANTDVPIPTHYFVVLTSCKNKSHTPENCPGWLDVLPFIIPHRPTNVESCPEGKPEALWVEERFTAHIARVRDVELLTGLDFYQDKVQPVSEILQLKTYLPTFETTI

[3] = molecular target: T3, Ectonucleotide pyrophosphatase/phosphodiesterase family member 1 (Homo sapiens) (UniProt P22413); assay: Potency index, ratio of IC50 for suramin to IC50 for test compound for human recombinant NPP1 expressed in COS-7 cell membrane using p-nitrophenyl thymidine monophosphate substrate incubated for 35 mins by spectrophotometric analysis; format: cell membranes
T3 sequence (whole entry): T1 sequence (P22413 whole entry)

[4] = molecular target: Ectonucleotide pyrophosphatase/phosphodiesterase family member 3 (Homo sapiens) (UniProt O14638); assay: Inhibition of human recombinant NPP3 expressed in COS-7 cell membrane using p-nitrophenyl thymidine monophosphate substrate incubated for 35 mins by spectrophotometric analysis; set-up: concentration or dose not given beside the values
[5] = molecular target: T3, Ectonucleotide pyrophosphatase/phosphodiesterase family member 1 (Homo sapiens); assay: Inhibition of human recombinant NPP1 expressed in COS-7 cell membrane using p-nitrophenyl thymidine monophosphate substrate incubated for 35 mins by spectrophotometric analysis; format: cell membranes; set-up: concentration or dose not given beside the values
[6] = molecular target: T4, Ectonucleotide pyrophosphatase/phosphodiesterase family member 3 (Homo sapiens) (UniProt O14638); assay: Potency index, ratio of IC50 for suramin to IC50 for test compound for human recombinant NPP3 expressed in COS-7 cell membrane using p-nitrophenyl thymidine monophosphate substrate incubated for 35 mins by spectrophotometric analysis; format: cell membranes
T4 sequence (whole entry): T2 sequence (O14638 whole entry)

IC50 [1] [nM] | IC50 [2] [nM] | inhibition [4] [%] | inhibition [5] [%] | SMILES | other results
2410 | 150 |  |  | Cc1nc(-c2ccc(-c3cccc4ccccc34)cc2)co1 | 
1440 | 1310 |  |  | Cc1nc(-c2ccc(-c3ccc(OCc4ccccc4)cc3)cc2)co1 | 
 |  | 49 | 31 | c1ccc(-c2ccc(-c3coc(-c4ccccc4)n3)cc2)cc1 | 
 |  |  | 48 | Cc1cccc(-c2ccc(-c3coc(-c4ccccc4)n3)cc2)c1 | 
 |  | 45 | 40 | Cc1nc(-c2ccc(-c3ccccc3C)cc2)co1 | 
 |  | 43 | 44 | c1ccc(-c2nc(-c3ccc(-c4cccc5ccccc45)cc3)co2)cc1 | 
17200 | 3730 |  |  | COc1ccc(-c2ccc(-c3coc(-c4ccccc4)n3)cc2)cc1 | 

Second part, the molecule before the results:

SMILES | IC50 [1] [nM] | IC50 [2] [nM] | inhibition [4] [%] | inhibition [5] [%] | other results
CCOc1ccccc1-c1nc(-c2ccc(-c3cccc4ccccc34)cc2)co1 | 150 |  | 40 |  | Ratio IC50 [3]: 51.8
CCOc1ccccc1-c1nc(-c2ccc(-c3ccc(C)cc3)cc2)co1 | 9230 | 11100 |  |  | 
Cc1cccc(-c2ccc(-c3coc(C)n3)cc2)c1 |  | 1700 |  | 43 | 
COc1ccc(-c2ccc(-c3coc(C)n3)cc2)cc1 |  | 170 |  | 38 | Ratio IC50 [6]: 5.3
Cc1cccc(-c2ccc(-c3coc(-c4ccccc4-c4cccc(C)c4)n3)cc2)c1 |  | 2210 |  | 36 | 
CCOc1ccccc1-c1nc(-c2ccc(-c3ccccc3)cc2)co1 |  |  | 48 | 27 | 
Cc1ccc(-c2ccc(-c3coc(C)n3)cc2)cc1 | 2560 | 5060 |  |  | 
Cc1ccccc1-c1ccc(-c2coc(-c3ccccc3)n2)cc1 | 420 | 4230 |  |  | 
c1ccc(-c2ccc(-c3coc(-c4ccccc4-c4ccccc4)n3)cc2)cc1 |  |  | 47 | 33 | 
Cc1nc(-c2ccc(-c3ccccc3)cc2)co1 |  |  | 43 | 46 | 
